# Data taken from article PMC10535624, “Curcuminoid Chalcones: Synthesis, Stability, and New Neuroprotective and Sonosensitising Activities” (Pharmaceuticals, 2023).
# Key:
# [1] = molecular target: T1, glutathione reductase (GR) (Homo sapiens, UniProt P00390); assay: Effect on GR activity; format: biochemical; settings: samples 3 mM/dm^3 in DMSO; mean ± SEM, n = 3
# T1 sequence (P00390 44-522): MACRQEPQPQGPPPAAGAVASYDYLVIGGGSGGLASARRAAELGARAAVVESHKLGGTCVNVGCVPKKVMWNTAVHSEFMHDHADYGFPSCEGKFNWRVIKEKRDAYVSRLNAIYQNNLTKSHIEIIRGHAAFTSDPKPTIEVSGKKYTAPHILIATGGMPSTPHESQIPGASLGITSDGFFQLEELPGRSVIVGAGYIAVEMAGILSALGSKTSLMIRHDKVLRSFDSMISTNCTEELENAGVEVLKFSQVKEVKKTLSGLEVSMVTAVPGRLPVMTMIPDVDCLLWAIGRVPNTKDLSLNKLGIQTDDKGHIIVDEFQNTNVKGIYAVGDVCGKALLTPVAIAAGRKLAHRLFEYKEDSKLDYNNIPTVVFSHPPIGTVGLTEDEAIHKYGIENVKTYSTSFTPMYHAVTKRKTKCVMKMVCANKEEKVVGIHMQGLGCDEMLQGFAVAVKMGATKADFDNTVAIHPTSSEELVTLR
# Description: (§1) We decided to extend the study by measuring the compounds’ ability to inhibit glutathione reductase (GR) and GPx activities, the human cells’ main endogenous enzymatic defence systems. Therefore, we checked the influence of some curcuminoid chalcones on GR and GPx using in vitro spectroscopic methods (Table 2). Moreover, the effects of curcuminoid chalcones on CAT activity were estimated (Table 2).
# (§2) The samples were dissolved in DMSO (Sigma D4540) to obtain a concentration of 3 mM/dm^3.
# (§3) The analyses were performed strictly as described by Studzińska-Sroka et al..
# COX-2 = molecular target: T2, COX-2 (Homo sapiens, UniProt P35354); assay: Effect on COX-2 activity; format: biochemical; settings: samples 3 mM/dm^3 in DMSO, 0.02 mL; mean ± SEM, n = 3
# T2 sequence (P35354 18-604): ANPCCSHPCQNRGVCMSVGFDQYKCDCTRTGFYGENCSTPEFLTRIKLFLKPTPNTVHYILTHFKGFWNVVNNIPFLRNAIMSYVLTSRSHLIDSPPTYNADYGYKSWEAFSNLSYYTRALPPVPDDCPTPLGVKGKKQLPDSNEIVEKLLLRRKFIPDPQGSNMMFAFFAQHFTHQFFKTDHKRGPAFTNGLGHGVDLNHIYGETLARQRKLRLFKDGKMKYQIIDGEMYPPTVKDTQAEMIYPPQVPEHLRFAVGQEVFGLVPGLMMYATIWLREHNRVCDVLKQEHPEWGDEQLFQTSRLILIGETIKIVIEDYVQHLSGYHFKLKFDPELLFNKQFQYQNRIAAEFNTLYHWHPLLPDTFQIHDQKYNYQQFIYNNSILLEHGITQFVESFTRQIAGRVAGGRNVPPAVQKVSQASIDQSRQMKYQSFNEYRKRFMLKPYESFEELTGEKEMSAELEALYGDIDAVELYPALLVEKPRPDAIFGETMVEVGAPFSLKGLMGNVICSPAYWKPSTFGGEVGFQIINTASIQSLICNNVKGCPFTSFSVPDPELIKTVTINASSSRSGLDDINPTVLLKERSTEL
# FaDu cells = assay: Sonodynamic cytotoxicity, MTT test; format: cell-based, human; settings: 40 µM, 8 h, then US 3 min, 3 MHz, 0.8 W/cm^2; MTT 6 h later; compared to untreated cells
# Description: The cytotoxic effect and sonosensitising properties of selected synthesised chalcone derivatives were evaluated on human SCC-25 tongue and FaDu throat cancer cell lines using the MTT test (Figure 5 and Figure 6).
# SCC-25 and FaDu human squamous cell carcinoma cell lines were purchased from the American Type Culture Collection (ATCC). The cells were cultivated in an incubator under optimal culture conditions (temperature: 37 °C; humidity: 95%; carbon dioxide content: 5%). The SCC-25 cell line was cultured in phenol red-free DMEM:F-12 medium complemented with 10% FBS, 2.5 mM L-glutamine, penicillin (100 U/mL), and streptomycin (0.1 mg/mL). The FaDu cells were maintained in phenol red-free Eagle’s Minimum Essential Medium (EMEM) supplemented with 10% fetal bovine serum (FBS), 2.5 mM L-glutamine, penicillin (100 U/mL), and streptomycin (0.1 mg/mL). For the experiments, confluent stock cultures were harvested using the trypsin–EDTA solution and seeded in 35-mm-diameter Petri plates at a density of 1 × 10^6. They were allowed to attach overnight, and the tested compounds were then added at a concentration of 40 µM. Control cells were maintained under the same conditions with 0.1% DMSO. […] The absorbance was measured using an Elx-800 plate reader (BioTek, Bad Friedrichshall, Germany) at 570 nm (reference wavelength 650 nm).
# catalase (CAT) = molecular target: T3, catalase (CAT) (Aspergillus niger, UniProt P55303); assay: Effect on CAT activity; format: biochemical; settings: samples 3 mM/dm^3 in DMSO, 0.01 mL; mean ± SEM, n = 3
# T3 construct: purchased Sigma C3515
# Description: as §2
# The method used by Watanabe et al. was used with the following modifications. The reaction mixture was composed of 0.02 mL of EDTA solution (56.5 mM), 0.01 mL of ^the sample, 0.02 mL of 3% H2O2 solution (Sigma H1009), and 0.02 mL of catalase solution (4000-fold diluted, Sigma C3515) (all reagents except the tested sample were diluted in TRIS buffer, pH 7.0, 1 mol/dm^3). The volume was completed to 0.31 mL by the same buffer solution. In a blank sample, DMSO (Sigma D4540) replaced the tested sample. The background of the sample was measured in a mixture composed of 0.01 mL of the sample completed to 0.31 mL by the buffer. The absorbance was read at 240 nm directly after the mixing and after 5 min of incubation (room temperature). The decreased absorbance (depletion of H2O2) in the tested and blank samples was compared. The calibration curve was produced using eleven H2O2 solutions (0.5693–5.693 mM/dm^3). The results are expressed in % inhibition and as H2O2 depletion (mmol of depleted H2O2/dm^3 min).
# BChE = BChE (Homo sapiens, UniProt P06276); format: biochemical; settings: samples 3 mM/dm^3 in DMSO, 0.035 mL; mean ± SEM, n = 3
# SCC-25 cells = assay: Sonodynamic cytotoxicity, MTT test; format: cell-based, human; settings: 40 µM; for Reduction of viability of SCC-25 cells, compound combined with US: 8 h, then US 3 min, 3 MHz, 0.8 W/cm^2, MTT 6 h later, compared to untreated cells
# [2] = system: glutathione peroxidase (GPx); assay: Effect on GPx activity; format: biochemical; settings: samples 3 mM/dm^3 in DMSO; mean ± SEM, n = 3
# Description: as §1, §2, §3
# AChE = AChE (Homo sapiens, UniProt P22303); assay: Effect on AChE activity (modified Ellman's method); format: biochemical; settings: samples 3 mM/dm^3 in DMSO, 0.035 mL; mean ± SEM, n = 3
# Source text: Neurodegenerative diseases are associated with the progressive damage of neurons. During the development of these diseases, there is a loss of nerve cells and a deficiency of […], serotonin, and norepinephrine levels. The ability to inhibit acetyl- (AChE) and butyrylcholinesterase (BChE) activities is seen, among others, in organophosphorus compounds, carbamate insecticides, phenoxyacetic pesticides, and hydrogen peroxide, as well as aliphatic ketones with the carbons C4–C9, e.g., 2,5-hexandione. AChE and BChE show differences in their susceptibility to inhibitors, behaviour in situations involving excess substrate, or substrate binding specificity. Unlike, other esterases, both enzymes hydrolyse choline esters at very high speeds. Thus, in our work, the modified Elman’s method was used to investigate the anti-AChE and anti-BChE effects of curcuminoid chalcone.
# as §2
# The analysis was performed strictly as described by Studzińska-Sroka et al., except that the volume of the tested samples added to the reaction mixture was 0.035 mL.
# [3] = Hydroxyl radical antioxidant capacity (HORAC); settings: samples 1 mg/mL DMSO; mean ± SEM, n = 3
# [4] = temperatures below 30 °C ref 43; cited from earlier work
# Chain of BChE (P06276 29-602, species assumed): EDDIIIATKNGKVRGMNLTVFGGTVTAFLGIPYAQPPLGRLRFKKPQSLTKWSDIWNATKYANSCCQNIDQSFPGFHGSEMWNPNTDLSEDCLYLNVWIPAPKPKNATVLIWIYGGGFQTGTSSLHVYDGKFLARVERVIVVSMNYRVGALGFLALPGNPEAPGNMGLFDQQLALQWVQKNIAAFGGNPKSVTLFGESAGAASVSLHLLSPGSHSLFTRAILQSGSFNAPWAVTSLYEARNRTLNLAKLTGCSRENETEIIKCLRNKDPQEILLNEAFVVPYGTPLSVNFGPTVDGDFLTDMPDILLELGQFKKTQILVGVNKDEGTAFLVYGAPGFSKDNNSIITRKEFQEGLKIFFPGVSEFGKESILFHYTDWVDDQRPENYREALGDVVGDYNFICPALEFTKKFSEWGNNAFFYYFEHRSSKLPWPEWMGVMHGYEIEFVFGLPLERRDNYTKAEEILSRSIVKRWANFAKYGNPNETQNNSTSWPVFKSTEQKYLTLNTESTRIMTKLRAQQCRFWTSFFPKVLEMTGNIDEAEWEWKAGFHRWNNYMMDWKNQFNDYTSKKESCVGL
# Chain of AChE (P22303 32-614): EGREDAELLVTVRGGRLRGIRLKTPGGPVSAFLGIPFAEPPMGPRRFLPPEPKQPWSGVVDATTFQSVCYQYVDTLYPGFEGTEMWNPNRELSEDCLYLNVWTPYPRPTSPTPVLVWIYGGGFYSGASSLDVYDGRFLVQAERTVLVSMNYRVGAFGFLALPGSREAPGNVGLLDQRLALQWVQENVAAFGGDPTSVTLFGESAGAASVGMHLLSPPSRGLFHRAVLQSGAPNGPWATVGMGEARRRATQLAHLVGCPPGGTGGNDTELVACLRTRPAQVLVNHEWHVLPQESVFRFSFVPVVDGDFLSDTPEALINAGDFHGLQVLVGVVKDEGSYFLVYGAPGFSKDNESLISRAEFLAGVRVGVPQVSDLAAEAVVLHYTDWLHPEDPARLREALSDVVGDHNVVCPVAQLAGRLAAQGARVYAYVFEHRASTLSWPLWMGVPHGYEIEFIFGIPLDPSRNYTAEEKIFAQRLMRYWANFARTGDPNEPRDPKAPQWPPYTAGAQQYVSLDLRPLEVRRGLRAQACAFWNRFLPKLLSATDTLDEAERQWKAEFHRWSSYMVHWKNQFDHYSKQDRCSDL
# T3 sequence (P55303 whole entry): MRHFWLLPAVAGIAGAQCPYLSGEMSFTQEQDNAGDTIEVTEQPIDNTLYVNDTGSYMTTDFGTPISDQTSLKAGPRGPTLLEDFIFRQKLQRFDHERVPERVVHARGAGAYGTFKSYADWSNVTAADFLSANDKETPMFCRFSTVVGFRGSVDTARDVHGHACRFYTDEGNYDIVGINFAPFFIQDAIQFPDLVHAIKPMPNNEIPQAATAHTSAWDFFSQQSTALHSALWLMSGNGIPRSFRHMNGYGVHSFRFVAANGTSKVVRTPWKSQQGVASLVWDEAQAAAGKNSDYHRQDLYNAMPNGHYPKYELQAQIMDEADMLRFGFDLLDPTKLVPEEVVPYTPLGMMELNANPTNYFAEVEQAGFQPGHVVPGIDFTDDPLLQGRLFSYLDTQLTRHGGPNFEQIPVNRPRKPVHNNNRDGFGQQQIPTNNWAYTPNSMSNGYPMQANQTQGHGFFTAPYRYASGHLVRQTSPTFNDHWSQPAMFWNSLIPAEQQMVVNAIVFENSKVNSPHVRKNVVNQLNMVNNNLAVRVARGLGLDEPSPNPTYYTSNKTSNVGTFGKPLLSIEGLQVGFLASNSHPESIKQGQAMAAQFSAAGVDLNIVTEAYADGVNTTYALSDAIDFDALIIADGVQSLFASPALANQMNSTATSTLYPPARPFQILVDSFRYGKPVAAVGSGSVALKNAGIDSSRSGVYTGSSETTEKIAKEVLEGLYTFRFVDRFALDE
structure (smiles),measurement,setting,value
"COc1cc(/C=C/C(=O)c2ccccc2)ccc1O [Compound 1, 3-(4-hydroxy-3-methoxyphenyl)-1-phenylprop-2-en-1-one]",GR Inhibition (%),[1],7.6 ± 2.4%
same,GR activity (NADPH consumption rate),[1],286 ± 90 nmol Depleted NADPH/min
same,Equivalent Concentration of Acetylsalicylic Acid (COX-2),COX-2,6.1 ± 0.1 mg/mL
same,"Inhibition of viability of FaDu cells, compound combined with US",FaDu cells,significantly reduced viability
same,CAT Inhibition (%),catalase (CAT),78.6 ± 2.8%
same,CAT Inhibition of the H2O2 Depletion,catalase (CAT),0.26 ± 0.01 mm/dm^3/min
same,BChE % (inhibition),BChE,78.0 ± 4.6%
same,"BChE, Equivalent Concentration of Reference Compound Magniflorine",BChE,0.30 ± 0.02 µg/mL
same,"BChE, Equivalent Concentration of Reference Compound Rivastigmine",BChE,0.23 ± 0.01 µg/mL
same,"Reduction of viability of SCC-25 cells, compound combined with US",SCC-25 cells,~ 40%
same,"Reduction of viability of SCC-25 cells, compound alone","SCC-25 cells; MTT, compared to control",no significant difference
same,GPx Inhibition (%),[2],30.3 ± 3.6%
same,GPx activity (NADPH consumption rate),[2],60.3 ± 7.1 nmol Depleted NADPH/min
same,AChE % (inhibition),AChE,80.5 ± 8.2%
same,"AChE, Equivalent Concentration of Reference Compound Magniflorine",AChE,0.31 ± 0.03 µg/mL
same,"AChE, Equivalent Concentration of Reference Compound Rivastigmine",AChE,0.46 ± 0.05 µg/mL
same,"HORAC, Gallic Acid Equivalents",[3],18.7 ± 3.8 µg/mL
"CC(C)Cc1ccc(C(C)C(=O)O)cc1 (centres unmarked) [Compound 4, ibuprofen, reference compound]",GR Inhibition (%),[1],19.9 ± 1.1%
same,GR activity (NADPH consumption rate),[1],747 ± 41 nmol Depleted NADPH/min
same,"Inhibition of viability of FaDu cells, compound combined with US",FaDu cells,no significant difference
same,"Reduction of viability of SCC-25 cells, compound combined with US",SCC-25 cells,no significant difference
same,pH of greatest stability of water solutions,[4],5–7
same,"HORAC, Gallic Acid Equivalents",[3],35.7 ± 4.2 µg/mL
O=C(/C=C/c1ccccc1)c1ccccc1 [Compound 5],GR Inhibition (%),[1],29.1 ± 4.4%
same,GR activity (NADPH consumption rate),[1],1093 ± 165 nmol Depleted NADPH/min
same,COX-2 Inhibition (%),COX-2,-
same,CAT Inhibition (%),catalase (CAT),12.5 ±2.4%
same,CAT Inhibition of the H2O2 Depletion,catalase (CAT),0.03 ± 0.01 mm/dm^3/min
same,BChE % (inhibition),BChE,58.1 ± 3.4%
same,"BChE, Equivalent Concentration of Reference Compound Magniflorine",BChE,0.23 ± 0.01 µg/mL
same,"BChE, Equivalent Concentration of Reference Compound Rivastigmine",BChE,0.17 ± 0.01 µg/mL
same,GPx Inhibition (%),[2],did not inhibit and -
same,AChE % (inhibition),AChE,65.7 ± 4.7%
same,"AChE, Equivalent Concentration of Reference Compound Magniflorine",AChE,0.25 ± 0.02 µg/mL
same,"AChE, Equivalent Concentration of Reference Compound Rivastigmine",AChE,0.37 ± 0.03 µg/mL
same,"HORAC, Gallic Acid Equivalents",[3],6.1 ± 2.5 µg/mL
"COc1ccc(/C=C/C(=O)c2ccccc2)cc1O [Compound 7, E-3-(3-hydroxy-4-methoxyphenyl)-1-phenylprop-2-en-1-one]",GR Inhibition (%),[1],41.8 ± 3.1%
same,GR activity (NADPH consumption rate),[1],1570 ± 116 nmol Depleted NADPH/min
same,Equivalent Concentration of Acetylsalicylic Acid (COX-2),COX-2,7.7 ± 0.1 mg/mL
same,CAT Inhibition (%),catalase (CAT),88.1 ± 4.0%
same,CAT Inhibition of the H2O2 Depletion,catalase (CAT),0.22 ± 0.01 mm/dm^3/min
same,BChE % (inhibition),BChE,94.4 ± 4.1%
same,"BChE, Equivalent Concentration of Reference Compound Magniflorine",BChE,0.37 ± 0.02 µg/mL
same,"BChE, Equivalent Concentration of Reference Compound Rivastigmine",BChE,0.27 ± 0.01 µg/mL
same,GPx Inhibition (%),[2],32.4 ± 2.8%
same,GPx activity (NADPH consumption rate),[2],64.4 ± 5.5 nmol Depleted NADPH/min
same,AChE % (inhibition),AChE,89.8 ± 5.8%
same,"AChE, Equivalent Concentration of Reference Compound Magniflorine",AChE,0.34 ± 0.01 µg/mL
same,"AChE, Equivalent Concentration of Reference Compound Rivastigmine",AChE,0.51 ± 0.03 µg/mL
same,"HORAC, Gallic Acid Equivalents",[3],11.5 ± 1.3 µg/mL
